Test results: article PMC13114161 (Antibiotics, 2026)
Where two headings read alike, the source gives them in different places.

What was measured:
P. aeruginosa ATCC 27853 [1] = assay: Neutropenic murine thigh infection model; format: in vivo, CD-1 mice; settings: for Mean Log10 CFU (thigh): +24 hr
Description: Female CD-1 mice (6–8 weeks old; 22 ± 2 g) were obtained from Envigo Laboratories, quarantined for at least 3 days, and housed 5 per cage in accordance with the approved IACUC protocol (IACUC-2017-0049). Neutropenia was induced by intraperitoneal (IP) administration of cyclophosphamide (Cytoxan) at 150 mg/kg on day 4 and 100 mg/kg on day 1 prior to infection.
Mice were infected intramuscularly (IM) in the right thigh with 0.1 mL of bacterial suspension containing approximately 1 × 10^5–10^6 CFU/mL. […] At 2 h or 24 h post-infection, mice were euthanized by CO2 asphyxiation, and thighs were aseptically excised and placed in 2 mL sterile phosphate-buffered saline (PBS) on ice. Tissue homogenization was performed using a Polytron PT10-35 (12 mm aggregate, Kinematica, Malters, Switzerland).
Plates were incubated overnight at 37 °C, and colonies were enumerated the following day.

P. aeruginosa ATCC 27853 [2] = assay: MIC and levofloxacin potentiation (broth microdilution); format: cell-based, Pseudomonas aeruginosa; settings: for MIC: Pseudomonas aeruginosa, ATCC27853
Description: Once synthesized, the three fluorinated EPI analogs (TXA11114, TXA11164 and TXA12027) were first assayed for their antibacterial activities against P. aeruginosa ATCC 27853. They had MICs of 100, >200 and 100 µg/mL, respectively (Table 1). […] Particularly, the inactivity of TXA11164 was surprising as the pKa values of both the amines are similar to that in TXA11114.
(§1) MIC assays for potentiation of antimicrobial activity against P. aeruginosa were performed as described previously.

in vivo = settings: female, CD-1, mouse, iv
Description: Thus, the safety and tolerability of TXA11114 was determined to find an optimum dosing capability. The maximum tolerated dose (MTD) of TXA11114 was assessed in female mice (CD-1, 6–8 weeks old) at the University of North Texas Health Science Center (UNTHSC). TXA11114 was administered IV to groups of three female mice. Mice were administered TXA11114 in the range 30–240 mg/kg (IV bolus). […] As doses are tolerated (not resulting in effects such as mortality, convulsions, or other severe morbidity), they are increased. Survival and general observations as to the tolerability of the administered dose started immediately and continued for a period of 48 h after each dose was recorded.

[3] = system: multidrug-resistant P. aeruginosa clinical isolates from the CDC-FDA; assay: Levofloxacin MIC potentiation, CDC-FDA isolates; format: cell-based, Pseudomonas aeruginosa; settings: for Levofloxacin MIC fold difference, +EPI / Levofloxacin MIC, +EPI: EPI […] (TXA11114, TXA09155) or 50 μg/mL (MC-04,124, PAβN); for MIC: Pseudomonas aeruginosa
Description: In a comparative study, the levofloxacin-potentiating activity of TXA11114 was evaluated alongside the well-characterized EPIs PAβN and MC-04,124 using P. aeruginosa clinical isolates obtained from the CDC and FDA Antimicrobial Resistance Isolate Bank and the Walter Reed Army Institute of Research (WRAIR). […] While PAβN has been widely studied in laboratory strains, its activity against the CDC/FDA P. aeruginosa panel has been reported only sparingly, limiting direct cross-study comparisons.
as §1

[4] = system: multidrug-resistant P. aeruginosa clinical isolates from Walter Reed Army Hospital; assay: Levofloxacin MIC potentiation, WRAIR MRSN isolates; format: cell-based, Pseudomonas aeruginosa; settings: Pseudomonas aeruginosa
Description: as §1

P. aeruginosa = assay: Effect of inoculum on levofloxacin potentiation (MIC); format: cell-based, Pseudomonas aeruginosa; settings: TXA11114 0 μg/mL
Description: as §1

[5] = system: P. aeruginosa DA7232 (gyrA-T83I, parC-S80L); assay: Levofloxacin MIC potentiation; format: cell-based, Pseudomonas aeruginosa; settings: Pseudomonas aeruginosa, read-out: Levofloxacin MIC
Description: as §1

[6] = levofloxacin 10 mg/kg SC QID, alone or with TXA11114 30 mg/kg IV QID

NC[C@@H]1CN[C@H](CNC(=O)c2cc3ccc(-c4ccc(F)cc4)cc3[nH]2)C1 [TXA09155]
Improvement of levofloxacin efficacy in murine thigh or lung infection models (P. aeruginosa ATCC 27853 [1]; thigh or lung infection models): neither TXA01182 nor TXA09155 improved levofloxacin efficacy | Fold MIC reduction [LVX/EPI-LVX] (P. aeruginosa ATCC 27853 [2]; EPI at […], ATCC 27853): 16 fold | MIC (P. aeruginosa ATCC 27853 [2]; EPI alone, ATCC 27853, read-out: EPI MIC): 50 µg/mL | LVX MIC (+EPI) (P. aeruginosa ATCC 27853 [2]; levofloxacin MIC with EPI at […], ATCC 27853): 0.063 µg/mL | MTD at 48 h (in vivo): 30 mg/kg | Levofloxacin MIC fold difference, +EPI ([3]; AR-0229): 32 fold | Levofloxacin MIC, +EPI ([3]; AR-0229): 2 µg/mL | Levofloxacin MIC fold difference, +EPI ([3]; AR-0232): 16 fold | Levofloxacin MIC, +EPI ([3]; AR-0232): 0.5 µg/mL | Levofloxacin MIC fold difference, +EPI ([3]; AR-0233): 32 fold | Levofloxacin MIC, +EPI ([3]; AR-0233): 0.125 µg/mL | Levofloxacin MIC fold difference, +EPI ([3]; AR-0234): 16 fold | Levofloxacin MIC, +EPI ([3]; AR-0234): 0.5 µg/mL | Levofloxacin MIC fold difference, +EPI ([3]; AR-0239): 16 fold | Levofloxacin MIC, +EPI ([3]; AR-0239): 4 µg/mL | Levofloxacin MIC, +EPI ([3]; AR-0242): 1 µg/mL | Levofloxacin MIC, +EPI ([3]; AR-0244): 2 µg/mL | Levofloxacin MIC fold difference, +EPI ([3]; AR-0246): 8, (8) fold | Levofloxacin MIC, +EPI ([3]; AR-0246): 8, (8) μg/mL | Levofloxacin MIC fold difference, +EPI ([3]; AR-0248): 32 fold | Levofloxacin MIC, +EPI ([3]; AR-0248): 0.5 µg/mL | Levofloxacin MIC fold difference, +EPI ([3]; AR-0249): 32 fold | Levofloxacin MIC, +EPI ([3]; AR-0249): 2 µg/mL | Levofloxacin MIC fold difference, +EPI ([3]; AR-0252): 64 fold | Levofloxacin MIC, +EPI ([3]; AR-0252): 0.5 µg/mL | Levofloxacin MIC fold difference, +EPI ([3]; AR-0253): 64 fold | Levofloxacin MIC, +EPI ([3]; AR-0253): 0.031 µg/mL | Levofloxacin MIC, +EPI ([3]; AR-0264): 1 µg/mL

C[C@H]1COc2c(N3CCN(C)CC3)c(F)cc3c(=O)c(C(=O)O)cn1c23 [Levofloxacin, levofloxacin]
Mean Log10 CFU (thigh) (P. aeruginosa ATCC 27853 [1]; [6]): 7.41 log10 CFU | Mean Log10 CFU (thigh) (P. aeruginosa ATCC 27853 [1]; levofloxacin 15 mg/kg SC QID, alone or with TXA11114 30 mg/kg IV QID): 5.97 log10 CFU | Mean Log10 CFU (thigh) (P. aeruginosa ATCC 27853 [1]; levofloxacin 20 mg/kg SC QID, alone or with TXA11114 30 mg/kg IV QID): 4.47 log10 CFU | Mean Log10 CFU Change vs +2 hr Control, Δlog10 (treatment-baseline), thigh (P. aeruginosa ATCC 27853 [1]; [6]): 1.33 log10 CFU | MIC (P. aeruginosa ATCC 27853 [2]; ATCC 27853 parent strain (Table S1), read-out: MIC): 1 µg/mL | MIC ([4]; read-out: Levofloxacin MIC alone across panel, 20 MRSN isolates): ≥ 8 µg/mL | MIC ([4]; read-out: Levofloxacin MIC, No EPI, MRSN #994): 16 µg/mL | MIC ([4]; read-out: Levofloxacin MIC, No EPI, MRSN #1344): 8 µg/mL | MIC ([4]; read-out: Levofloxacin MIC, No EPI, MRSN #3587): 8 µg/mL | MIC ([4]; read-out: Levofloxacin MIC, No EPI, MRSN #3705): 8 µg/mL | MIC ([4]; read-out: Levofloxacin MIC, No EPI, MRSN #5498): 32 µg/mL | MIC ([4]; read-out: Levofloxacin MIC, No EPI, MRSN #5519): 64 µg/mL | MIC ([4]; read-out: Levofloxacin MIC, No EPI, MRSN #5539): 16 µg/mL | MIC ([4]; read-out: Levofloxacin MIC, No EPI, MRSN #6220): 128 µg/mL | MIC ([4]; read-out: Levofloxacin MIC, No EPI, MRSN #6241): 8 µg/mL | MIC ([4]; read-out: Levofloxacin MIC, No EPI, MRSN #6678): 32 µg/mL | MIC ([4]; read-out: Levofloxacin MIC, No EPI, MRSN # 6695): 8 µg/mL | MIC ([4]; read-out: Levofloxacin MIC, No EPI, MRSN #8130): 16 µg/mL | MIC ([4]; read-out: Levofloxacin MIC, No EPI, MRSN #8139): 8 µg/mL | MIC ([4]; read-out: Levofloxacin MIC, No EPI, MRSN #8912): 16 µg/mL | MIC ([4]; read-out: Levofloxacin MIC, No EPI, MRSN #8914): 16 µg/mL | MIC ([4]; read-out: Levofloxacin MIC, No EPI, MRSN #8915): 128 µg/mL | MIC ([4]; read-out: Levofloxacin MIC, No EPI, MRSN #14981): 16 µg/mL | MIC ([4]; read-out: Levofloxacin MIC, No EPI, MRSN #15566): 8 µg/mL | MIC ([4]; read-out: Levofloxacin MIC, No EPI, MRSN #16344): 8 µg/mL | MIC ([4]; read-out: Levofloxacin MIC, No EPI, MRSN #369569): 32 µg/mL | LVX MIC (P. aeruginosa; OD600 0.001): 1 µg/mL | LVX MIC (P. aeruginosa; OD600 0.025): 2 µg/mL | MIC [5]: 256 µg/mL | MIC ([3]; read-out: Levofloxacin MIC, No EPI, AR-0229): 64 µg/mL | MIC ([3]; read-out: Levofloxacin MIC, No EPI, AR-0232): 8 µg/mL | MIC ([3]; read-out: Levofloxacin MIC, No EPI, AR-0233): 4 µg/mL | MIC ([3]; read-out: Levofloxacin MIC, No EPI, AR-0234): 8 µg/mL | MIC ([3]; read-out: Levofloxacin MIC, No EPI, AR-0239): 32 µg/mL | MIC ([3]; read-out: Levofloxacin MIC, No EPI, AR-0242): 8 µg/mL | MIC ([3]; read-out: Levofloxacin MIC, No EPI, AR-0244): 64 µg/mL | MIC ([3]; read-out: Levofloxacin MIC, No EPI, AR-0246): 64 µg/mL | MIC ([3]; read-out: Levofloxacin MIC, No EPI, AR-0248): 16 µg/mL | MIC ([3]; read-out: Levofloxacin MIC, No EPI, AR-0249): 64 µg/mL | MIC ([3]; read-out: Levofloxacin MIC, No EPI, AR-0252): 32 µg/mL | MIC ([3]; read-out: Levofloxacin MIC, No EPI, AR-0253): 2 µg/mL | MIC ([3]; read-out: Levofloxacin MIC, No EPI, AR-0264): 64 µg/mL
